In turn, `CCCC[C@H](NC(=O)[C@H](CC(C)C)NC(=O)c1c(F)cccc1C(F)(F)F)C(=O)CSCc1ccco1` yielded a melting point of 106 to 107 °C.

As for `COc1ccc(C(=O)N(C(=O)c2ccc(OC)cc2)c2nc3ccc(N(C)C)cc3c(NCc3ccccc3)c2C#N)cc1`, the melting point is 156 °C.

In turn, `COc1cc(C(=O)N2CCCC2CO)c([N+](=O)[O-])cc1OC` (stereo not given) came in with a melting point of 124 to 128 °C.

In turn, `CCCCCCCCCCCCCCC(=O)C(=O)NC(C=CC(=O)O)CCCC` (stereo not given) returned a melting point of 65 to 67 °C.

With `CC1(C)OC(=O)COC1=O`, the melting point lay in the range of 82 to 83 °C.

For the compound `CC(C)(C)OC(=O)N1CCc2cc3ccccc3n2CC1`, the melting point was 129 to 132 °C.

For the compound `COC1C=C(C)C2(OC(=O)c3ccc([N+](=O)[O-])cc3)CC(C)(C)C1O2` (stereo not given), the melting point is 95 to 95.5 °C.

In turn, `CCc1c(Br)sc2[nH]c(=O)c(=O)[nH]c12` came in with a melting point of 295 to 297 °C.

For the compound `CC(C)c1ccc(S(=O)(=O)n2c(CCCC(=O)O)cc3nc(C(F)(F)F)ccc32)cc1`, the melting point came to 144 °C.

Turning to `O=C(O)c1nn(-c2c(Cl)cc(C(F)(F)F)cc2Cl)cc1OC(F)F`, the melting point was 180 to 183 °C.

Turning to `CCOC(=O)c1ccc2c(CCN)c[nH]c2c1`, the melting point was in the range of 169 to 172 °C.

Consider `NC(=O)c1c(C(=O)O)cnn1-c1ccc(Br)cc1`, for which the melting point was in the range of 251 to 252 °C.

`CC(C)(C)OC(=O)NCC1CCN(CC2(C(=O)O)CCOCC2)CC1` displayed a melting point of 129 °C.

For `COc1cc(CO)ccc1NC(C)=O`, the melting point came out at 104 °C.

The compound `Cn1cc(-c2ccccc2)c(=O)c(-c2ccc(Br)cc2)c1` displayed a melting point of 172 °C.

`Cc1ccc(-c2cc3ccc(C(=O)Nc4ccc(CN(C)C5CCOCC5)cc4)cc3o2)cc1` displayed a melting point of 224 to 227 °C.

`Cc1cccc(NC(=O)NC2N=C(C3CC3)c3cccc(C)c3N(CC(=O)N3CC4CCC(CC4)C3)C2=O)c1` (stereo not given) had a melting point of 172 to 174 °C.

Take `O=S(=O)(CCO)CCC(c1cc(F)ccc1F)S(=O)(=O)c1ccc(Cl)cc1` (stereo not given): the melting point was in the range of 111 to 113 °C.

On to `Cc1csc(NC(=O)C2(CN3CCN(c4nc(C)cs4)C3=O)C=CC=CC2)n1` (stereo not given), for which the melting point fell in the range of 197 to 198 °C.

In turn, `CCOC(=O)C=Cc1cc(Cl)ccc1Cl` yielded a melting point of 34 to 36 °C.

For the compound `CC(C)(C)OC(=O)CON=C(C(=O)O)c1cccs1`, the melting point lay in the range of 88.3 to 91.3 °C.

For `CC(C)(C)c1cc(I)c2c(c1)C=NS(=O)(=O)O2`, the melting point was in the range of 130 to 134 °C.

Consider `CSc1ncc(Br)cn1`, for which the melting point lay in the range of 63 to 65 °C.

For `COc1ccc(C(=[N+]=[N-])c2ccc(OC)cc2)cc1`, the melting point came to 85 °C.

As for `CCC(CC)Cn1c(=O)c(=O)[nH]c2ccc(NC(C)=O)cc21`, the melting point is 168 to 170 °C.

Consider `CCCN(CCCc1coc2c(OC)cccc12)C1COc2c(F)ccc(C(N)=O)c2C1` (stereo not given), for which the melting point is 123 to 129 °C.

The compound `Cn1nc(-c2cccc(C(F)(F)F)c2)c(O)c1C(=O)O` returned a melting point of 192 to 194 °C.

`O=C(O)CCC(C(=O)O)N1C(=O)c2ccccc2C1=S` (stereo not given) showed a melting point of 157 °C.

Compound `CC1Nc2ccc(NC(=O)c3ccc(C(=NN)C(=O)OCc4ccccc4)cc3)cc2CN(CCc2ccccc2)C1=O` (stereo not given) displayed a melting point of 120 °C.

The compound `CCCC(=O)c1cnc2c(CO)cccc2c1Nc1ccc(F)cc1C` registered a melting point of 168 to 170 °C.

In the case of `O=C(NCC1CCCCC1)c1c(Cl)ccc2nc(CCCCc3nnn[nH]3)ccc12`, the melting point was 90 to 93 °C.

Compound `Cc1cc(Br)cnc1CCCCNC1=NS(=O)(=O)c2ccc(Cl)cc21` gave a melting point of 231 to 235 °C.

In turn, `N#Cc1ccc2nc3c(c(=O)n2c1)SCC3` came in with a melting point of 261 to 263 °C.

For `CCOC(=O)[C@H](CCC1CCCCC1)N[C@H]1COc2ccccc2N(CC(=O)O)C1=O`, the melting point is 135 to 139 °C.

`O=S1(=O)N=CN(C2CC2)c2cc(F)cc(F)c21`: the melting point was 167 to 168 °C.

The compound `OCC1OC(SCC=Cc2ccccc2)C(O)C(O)C1O` (stereo not given) registered a melting point of 145 to 146 °C.

Turning to `Cc1nn(Cc2ccc(Cl)cc2)c(C)c1CC(=O)O`, the melting point was in the range of 173 to 174 °C.

`C#Cc1cnc(C)c(O)c1CO` displayed a melting point of 170 to 171 °C.

Turning to `NC(Cc1ccc(C(=O)c2ccccc2)cc1)C(=O)O` (racemic), the melting point was 217 °C.

For `CC(C)C(=O)Nc1ccc(C(=O)O)cc1N`, the melting point is 159 to 160 °C.

`CCCCc1nc2c(N)nc3ccccc3c2n1CCCNC(=O)Nc1ccccc1` had a melting point of 191 to 192 °C.

Take `CC(=O)CN1C(=O)c2ccccc2C12OCCO2`: the melting point lay in the range of 91 to 93 °C.

Turning to `COC(=O)c1cc2c(OC(C)C)cccc2o1`, the melting point was 43 to 45 °C.

Turning to `CC(=O)Oc1ccc(/C=C2/Sc3nc(Nc4ccc(N5CCN(C)CC5)cc4)ncc3NC2=O)cc1`, the melting point was 168 to 171 °C.

As for `CCN1C(=O)CCCc2cc(Nc3ncc(Cl)c(N[C@@H]4CCCC[C@H]4NS(C)(=O)=O)n3)c(OC)cc21`, the melting point is 120 to 128 °C.

`CO[C@]12C[C@@H](CN3CCC(O)(c4ccc(Cl)c(C(F)(F)F)c4)CC3)CN(C)[C@@H]1Cc1c[nH]c3cccc2c13` gave a melting point of 143 to 146 °C.

In the case of `CC(C)C1CC(=O)C(C(=O)NS(=O)(=O)c2ccc(Cl)cc2)C(=O)C1` (stereo not given), the melting point is 100 to 102 °C.

As for `COc1cc(CC#N)c([N+](=O)[O-])cc1C(F)(F)F`, the melting point is 103 to 104 °C.

`COc1cc2c(Nc3cccc(Cl)c3F)ncnc2cc1OC1CCN(C(=O)[C@@H](C)O)CC1` returned a melting point of 107 to 111 °C.

In turn, `CCCCOc1nsnc1OC[C@@H]1CCCN1` returned a melting point of 99 to 100 °C.

As for `O=C1OCC(CC(F)(F)F)N1c1nc(-c2ccc(Br)cc2)cs1` (stereo not given), the melting point was in the range of 163 to 165 °C.

Compound `CCCCc1nn2c(C)c(C)nc2n1Cc1ccc(-c2ccccc2-c2nnn[nH]2)cc1` yielded a melting point of 138 to 141 °C.

The compound `OC[C@H](O)CCOc1nc(N2CCNCC2)nc2ccccc12` returned a melting point of 151 to 156 °C.

With `CCN(Cc1ccc(Cl)nc1)C(=NC#N)NC`, the melting point was in the range of 122 to 123 °C.

Compound `O=c1n(CCCF)nnn1-c1cc(Oc2ccc([N+](=O)[O-])cc2)c(Cl)cc1F` showed a melting point of 109 to 110 °C.

`COC(=O)CCC#Cc1cc(Cl)ccc1NS(=O)(=O)c1cccc(C)c1` displayed a melting point of 69 °C.

On to `CN(C)Cc1ncc2c(c1O)COC2(c1ccccc1)c1ccc(F)cc1` (stereo not given), for which the melting point was determined as 184 °C.

`Nc1c(NCCSCc2csc(CN3CCCCC3)c2)c(=O)c1=O` yielded a melting point of 236 to 238 °C.

Turning to `COc1cc2nc(Cl)nc(N)c2c(OC)c1OC`, the melting point is 138 to 140 °C.

As to `CCCc1ccc(-c2ccc(-c3cccs3)c(F)c2)cc1`, the melting point was 88 °C.

`CCOC(=O)[C@H](CO)NC(=O)[C@H](CC(=O)OCc1ccccc1)NC(=O)OC(C)(C)C` gave a melting point of 96 to 97 °C.

`CC1(C)CCCN(C(=O)CN(C(=O)CNC(=O)Nc2cccc(CO)c2)c2ccccc2)C1`: the melting point stood at 248 °C.

Turning to `Oc1ccc(N2CCN(n3ccnc3)CC2)cc1`, the melting point came to 282 °C.

Compound `CC(C)c1nc(Cl)c2c(-c3ccc([N+](=O)[O-])o3)nn(C)c2n1` came in with a melting point of 112 °C.

With `CCOC(=O)c1c2n(c3cc(N4CCN(CC(C)=O)CC4)c(F)cc3c1=O)C(C)S2` (stereo not given), the melting point was in the range of 196 to 200 °C.

Consider `O=C(O)C(O)(c1ccccc1)c1ccc(Br)cc1` (racemic), for which the melting point lay within 125 to 126 °C.

For `CC(C)N(C(C)C)S(=O)(=O)N[C@@H](Cc1ccc(NC(=O)c2c(Cl)cncc2Cl)cc1)C(=O)O`, the melting point was determined as 151 °C.

Compound `CN(Cc1ccccc1CC(=O)O)C(=O)OC(C)(C)C` returned a melting point of 96 to 98 °C.

As for `CC(=O)C=Cc1ccc(NS(C)(=O)=O)c(Sc2ccc(F)cc2F)c1`, the melting point lay within 119 to 120 °C.

For `CC(C)c1ccc2c(=O)c(S(C)=O)cn(C)c2c1` (stereo not given), the melting point lay within 214 to 215 °C.

Regarding `O=C(Nc1ccc2c(c1)CCSCC2)OCc1ccccc1`, the melting point was in the range of 118 to 120 °C.

`O=C(O)COc1ccc(-c2c3ccccc3c(Br)c3sc4ccccc4c23)cc1`: the melting point lay within 198 to 200 °C.

With `CCN(CC)C(=O)CCc1nc(-c2ccccc2)cc2ccccc12`, the melting point is 58 °C.

With `CCNc1ccc(SSc2ccc(NCC)cc2C(=O)NC(C(=O)O)C(C)CC)c(C(=O)NC(C(=O)O)C(C)CC)c1` (stereo not given), the melting point fell in the range of 97 to 100 °C.

`CCOC(=O)c1cnn2c(-c3ccc(C)c(C)c3)ccnc12` displayed a melting point of 187 to 188 °C.

For the compound `O=c1c2ccc(O)cc2oc2oc3cc(O)ccc3c12`, the melting point was > 300 °C.

`Cc1nc(N)cc(-n2ccc3ccccc32)n1`: the melting point was in the range of 176 to 177 °C.

`Cn1nc(-c2ccncc2)nc1-c1ccncc1` gave a melting point of 168 to 170 °C.

Take `Oc1ccc2c(c1Cl)Sc1ccccc1N2`: the melting point was determined as 110 °C.

The compound `Cc1cn(C(C)C(=O)N(C)C)nc1-c1cccs1` (stereo not given) had a melting point of 100 to 102 °C.

The compound `O=C(N[C@H]1CC[C@H](CCN2CCN(c3nccc4c3OCC4)CC2)CC1)c1cnc(N2CCOCC2)cn1` registered a melting point of 200 °C.

For `Cn1c(=O)c([N+](=O)[O-])c(N2CCN(C(=O)c3cccs3)CC2)c2ccccc21`, the melting point worked out at 105 °C.

With `COc1cc(COc2nn(-c3ccccc3)cc2C(=O)O)ccc1OCc1nc(-c2ccccc2)oc1C`, the melting point lay in the range of 209 to 210 °C.

On to `c1ccc(COc2ccc3[nH]c(-c4ccc[nH]4)cc3c2)cc1`, for which the melting point lay within 178 to 182 °C.

Turning to `COc1cn(-c2ccc(OC(F)(F)F)cc2F)nc(-c2ccnn2-c2ccccc2)c1=O`, the melting point fell in the range of 117 to 118 °C.

Take `C[C@@H](n1cnc2cc(-c3ccc([N+](=O)[O-])cc3)sc2c1=O)[C@](O)(Cn1cncn1)c1ccc(F)cc1F`: the melting point lay in the range of 272 to 273 °C.

On to `S=P12SP3(=S)SP(=S)(S1)SP(=S)(S2)S3`, for which the melting point was in the range of 165 to 166 °C.

Compound `COC(=O)c1ccc(CN2CCC(=O)C(C(c3ccccc3)c3ccccc3)C2)cc1` (stereo not given) came in with a melting point of 107 to 108 °C.

In turn, `CC(C)c1cccc(NC(=O)c2ccccc2[N+](=O)[O-])c1` gave a melting point of 65.5 to 68.5 °C.

Compound `O=Cc1cnc2c(OCc3ccccc3)cccn12` had a melting point of 167 °C.

The record behind these values is a melting point compilation (Tetko et al.; mined from patent text by program, amines drawn as free bases though some values may be those of a salt).
